Source: patent US4918056A, “2-substituted arabinopyranosyl nucleosides and nucleotides” (priority 1986, dated 1990)
Values belong to the molecule of their own block, whether it stands above or below them.

Key:
L1210 leukemia cells [1] = assay: L1210 leukemia cell growth inhibition (48 hr, Coulter counter); format: cell-based, mouse; settings: for IC50: Mus musculus, L1210, RPMI 1640, 10% fetal calf serum; for growth inhibitory activity in words: compared with 85024
Method: Compounds 85024, 85023, 85058, 85027 and 85060 having a glycosidic linkage between the 2'carbon of the arabinose (in pyranose configuration) and base were evaluated for their growth inhibitory action on L1210 leukemia cells maintained in RPMI 1640 medium supplemented with 10% fetal calf serum and 16 mM HEPES, pH 7.2. Cellular growth inhibition was determined by incubating […] for 48 hr in 2 ml of media containing varying concentrations of drugs. Cell growth inhibition (50% growth inhibitory concentration, IC50) was determined after counting cells with a Coulter counter (Bernacki et al., Cancer Res. 45, 695, 1985). Drug concentrations which inhibited cell growth by 50% (IC50) are listed for each compound in Table 1.

L1210 leukemia cells [2] = assay: Reversal of L1210 growth inhibition by salvageable nucleosides; format: cell-based, mouse; settings: for IC50: Mus musculus
Method: Reversal studies were conducted as follows: […], 85027 or 5-FdUr were added at various concentrations near their IC50 to cultures of L1210 leukemia cells, maintained in PRMI 1640 medium supplemented with 10% fetal calf serum and 16mM HEPES, pH 7.2 as described in Example 9. Nucleosides including thymidine (1×10^-5 M), uridine (1×10^-4 M), deoxyuridine ([…]), adenosine (1×10^-4 M), or guanosine (1×10^-5 M) were also added to identical drug (85024, 85027 or 5-FdUr) containing L1210 leukemia cultures. Cellular growth inhibition or its prevention by the addition of salvageable nucleosides was determined 48 hours later by counting cells using an electronic Coulter Counter.

L1210 leukemia = assay: Therapeutic activity of 85027, 5-FU and ara-C in DBA/2 mice with L1210 leukemia; format: in vivo, mouse (DBA/2); set-up: Mean ± SD survival: unit not given here; settings: for Median survival: control 6; for Mean ± SD survival: control 6.4 ± 0.2
Method: The therapeutic activity of 85027 was compared with that of 5-Fluorouracil (5-FU) and Cytosine Arabinoside (ara-C) in DBA/2 mice with L1210 Leukemia. (Table 3) Tests were performed in accordance with the procedure described in Example 8. […] 5-FU was administered i.p. on days 1,3 and 6.

L1210/ara-C leukemia = assay: Therapeutic activity in DBA/2N mice with ara-C resistant L1210 leukemia
Method: (§1) In conducting the evaluations, the activity was tested against intraperitoneal (i.p.) implanted leukemia in mice.
(§2) DBA/2N female mice (20 g) were implanted i.p. with 1×10^6 L1210 leukemia cells on day 0. Mice were weighed and inspected for tumor growth and survival daily. […] Dosages varied from 1 to 800 mg/kg/day (mkd).
(§3) Survival time was measured in days after tumor implantation. % ILS (increase in life span) was based on mean survival.
(§4) Testing was followed as described in the NCI protocol and evaluation by comparison of median survival time (ST) of the treated animals to that of the control animals by the percentage increase in % ILS.
(§5) Drug resistant L1210 leukemia cell sublines were obtained from the National Cancer Institute. […] Eight mice were used as controls and five mice for each drug dosage group. Drugs were administered i.p. once per day on days 1, 2, 3, 4 and 5.

L1210/5-FU leukemia = assay: Therapeutic activity in DBA/2N mice with 5-FU resistant L1210 leukemia; format: in vivo, mouse (DBA/2N female)
Method: as §1, §2, §3, §4, §5

[3] = 5 mkd i.p. (head: × 5; text: × 3, days 1, 3 and 6)
[4] = 25 mkd i.p. (head: × 5; text: × 3, days 1, 3 and 6)

SMILES: COC1OC[C@H]2OC(C)(C)O[C@H]2C1(F)n1ccc(=O)[nH]c1=O (mixture of isomers) [compound 85023, Methyl 2-deoxy-3,4-0-isopropylidene-2-rac-[1H,3H-2,4-dioxo-1-pyrimidinyl]-2-fluoro-α-D-arabinopyranoside [5g] and Methyl 2-deoxy-3,4-0-isopropylidene-2-rac-[1H,3H-2,4-dioxo-1-pyrimidinyl]-2-fluoro-β-D-arabinopyranoside [6g]]
IC50 (L1210 leukemia cells [1]): > 100 µM | growth inhibitory activity in words (L1210 leukemia cells [1]): loss in biological inactivity

SMILES: COC1OC[C@@H](OC(C)=O)[C@@H](OC(C)=O)[C@]1(F)n1cc(F)c(=O)[nH]c1=O (stereo partly drawn) [compound 85027, Methyl 3,4-di-0-acetyl-2-deoxy-2(R)-[1H,3H-2,4-dioxo-5-fluoro-1-pyrimidinyl]-2-fluoro-α-D-arabinopyranoside [5b] and Methyl 3,4-di-0-acetyl-2-deoxy-2(R)-[1H,3H-2,4-dioxo-5-fluoro-1-pyrimidinyl]-2-fluoro-β-D-arabinopyranoside[6b]]
reversal of cellular cytotoxicity by exogenous nucleosides (L1210 leukemia cells [2]; exogenous thymidine, uridine or deoxyuridine, tissue culture): not reversed by exogenous thymidine, uridine or deoxyuridine | effect of added nucleoside on the IC50 (L1210 leukemia cells [2]; thymidine (1×10^-5 M), uridine (1×10^-4 M) or deoxyuridine (1×10^-5 M)): < 10% | IC50 (L1210 leukemia cells [1]): 34 µM | Survival Range (L1210 leukemia; 50 mkd × 5 i.p.): 8-8 days | Median survival (L1210 leukemia; 50 mkd × 5 i.p.): 8 days | Mean ± SD survival (L1210 leukemia; 50 mkd × 5 i.p.): 8 ± 0 | Survival Range (L1210 leukemia; 100 mkd × 5 i.p.): 7 to 8 days | Median survival (L1210 leukemia; 100 mkd × 5 i.p.): 8 days | Mean ± SD survival (L1210 leukemia; 100 mkd × 5 i.p.): 7.8 ± 0.2 | Survival Range (L1210 leukemia; 200 mkd × 5 i.p.): 8 to 9 days | therapeutic activity compared with araC (L1210 leukemia; 200 mkd × 5 i.p.): less therapeutic activity than araC | Median survival (L1210 leukemia; 200 mkd × 5 i.p.): 8 days | Mean ± SD survival (L1210 leukemia; 200 mkd × 5 i.p.): 8.2 ± 0.22 | % ILS (increase in life span) (L1210 leukemia; 85027, 50 mkd × 5 i.p., p < 0.01): 25% | % ILS (increase in life span) (L1210 leukemia; 85027, 100 mkd × 5 i.p., p < 0.05): 22% | % ILS (increase in life span) (L1210 leukemia; 85027, 200 mkd × 5 i.p., p < 0.01): 29% | cross resistance to ara-C and 5-FU (L1210/ara-C leukemia; summary of L1210/ara-C and L1210/5-FU tests): not cross resistant

SMILES: Nc1ccn([C@@H]2O[C@H](CO)[C@@H](O)[C@@H]2O)c(=O)n1 [ara-C, Cytosine Arabinoside]
Survival Range (L1210 leukemia; 50 mkd × 5 i.p.): 9 to 14 days | Median survival (L1210 leukemia; 50 mkd × 5 i.p.): 14 days | Mean ± SD survival (L1210 leukemia; 50 mkd × 5 i.p.): 13.0 ± 1.0 | Survival Range (L1210 leukemia; 100 mkd × 5 i.p.): 14 to 15 days | Median survival (L1210 leukemia; 100 mkd × 5 i.p.): 14 days | Mean ± SD survival (L1210 leukemia; 100 mkd × 5 i.p.): 14.4 ± 0.2 | Survival Range (L1210 leukemia; 200 mkd × 5 i.p.): 8 to 19 days | Median survival (L1210 leukemia; 200 mkd × 5 i.p.): 9 days | Mean ± SD survival (L1210 leukemia; 200 mkd × 5 i.p.): 12.4 ± 2.3 | % ILS (increase in life span) (L1210 leukemia; ara-C, 50 mkd × 5 i.p., p < .05): 104% | % ILS (increase in life span) (L1210 leukemia; ara-C, 100 mkd × 5 i.p., p < .01): 126% | % ILS (increase in life span) (L1210 leukemia; ara-C, 200 mkd × 5 i.p., p < .01): 95% | effect on lifespan (L1210 leukemia; i.p. 5 day schedule, 50, 100 and 200 mg/kg): most effective causing a doubling of lifespan | Survival Range (L1210/ara-C leukemia; 100 mkd × 5 i.p.): 7-7 days | % ILS (increase in life span) (L1210/ara-C leukemia; 100 mkd × 5 i.p., NS): 0% | Median survival (L1210/ara-C leukemia; 100 mkd × 5 i.p., control 7): 7 days | Mean ± SD survival (L1210/ara-C leukemia; 100 mkd × 5 i.p., control 7.1 + 0.1): 0 days | therapeutic effect (L1210/ara-C leukemia; mice with L1210/ara-C leukemia (Table 4)): no therapeutic effect | Mean Animal Weight (L1210/ara-C leukemia; mouse, in vivo, ip): 20.0 g

IC50 (L1210 leukemia cells [2]; L1210, with 1×10^-5 M thymidine): > 0.01 µM | IC50 (L1210 leukemia cells [2]; L1210, without added thymidine): 0.0003 µM
SMILES: O=c1[nH]c(=O)n([C@H]2C[C@H](O)[C@@H](CO)O2)cc1F [5-FdUr, 5-Fluorodeoxyuridine, reference compound]

SMILES: COC1OC[C@@H](OC(C)=O)[C@@H](OC(C)=O)[C@]1(F)n1cc(C)c(=O)[nH]c1=O (stereo partly drawn) [compound 85060, Methyl 3,4-di-0-acetyl-2-deoxy-2(R)-[1H,3H-2,4-dioxo-5-methyl-1-pyrimidinyl]-2-fluoro-α-D-arabinopyranoside [5c] and Methyl 3,4-di-0-acetyl-2-deoxy-2(R)-[1H,3H-2,4-dioxo-5-methyl-1-pyrimidinyl]-2-fluoro-β-D-arabinopyranoside [6c]]
IC50 (L1210 leukemia cells [1]): > 100 µM | growth inhibitory activity in words (L1210 leukemia cells [1]): inactive

SMILES: CCCCCC(=O)O[C@@H]1[C@H](OC(=O)CCCCC)COC(OC)[C@@]1(F)n1ccc(=O)[nH]c1=O (stereo partly drawn) [compound 85058, Methyl 2-deoxy-2(R)-[1H,3H-2,4-dioxo-1-pyrimidinyl]-2-fluoro-3,4-di-0-hexanoyl-α-D-arabinopyranoside [5d] and Methyl 2-deoxy-2(R)-[1H,3H-2,4-dioxo-1-pyrimidinyl]-2-fluoro-3,4-di-0-hexanoyl-β-D-arabinopyranoside [6d]]
IC50 (L1210 leukemia cells [1]): 40 µM | growth inhibitory activity in words (L1210 leukemia cells [1]): did not significantly affect activity

SMILES: O=c1[nH]cc(F)c(=O)[nH]1 [5-FU, 5-Fluorouracil]
% ILS (increase in life span) (L1210 leukemia; 5-FU, 5 mkd i.p. (head: × 5; text: × 3, days 1, 3 and 6), p < .01): 41% | % ILS (increase in life span) (L1210 leukemia; 5-FU, 25 mkd i.p. (head: × 5; text: × 3, days 1, 3 and 6), p < .01): 88% | % ILS (increase in life span) (L1210 leukemia; 5-FU, 50 mkd × 5 i.p., p < .01): 34% | % ILS (increase in life span) (L1210 leukemia; 5-FU, 100 mkd × 5 i.p., p < .05): 22% | % ILS (increase in life span) (L1210 leukemia; 5-FU, 200 mkd × 5 i.p., p < .05): 22% | Survival Range (L1210 leukemia; [3]): 9-9 days | Median survival (L1210 leukemia; [3]): 9 days | Mean ± SD survival (L1210 leukemia; [3]): 9 | Survival Range (L1210 leukemia; [4]): 12-12 days | Median survival (L1210 leukemia; [4]): 12 days | Mean ± SD survival (L1210 leukemia; [4]): 12 | toxicity to mice (L1210 leukemia; 50, 100 and 200 mkd × 5 i.p.): extremely toxic to mice causing severe weight loss | weight to which mice fell (severe weight loss) (L1210 leukemia; 50, 100 and 200 mkd × 5 i.p.): 13 to 14 g | Survival Range (L1210 leukemia; 50 mkd × 5 i.p.): 8 to 9 days | Median survival (L1210 leukemia; 50 mkd × 5 i.p.): 9 days | Mean ± SD survival (L1210 leukemia; 50 mkd × 5 i.p.): 8.6 ± 0.2 | Survival Range (L1210 leukemia; 100 mkd × 5 i.p.): 7 to 8 days | Median survival (L1210 leukemia; 100 mkd × 5 i.p.): 8 days | Mean ± SD survival (L1210 leukemia; 100 mkd × 5 i.p.): 7.8 ± 0.2 | Survival Range (L1210 leukemia; 200 mkd × 5 i.p.): 7 to 8 days | Median survival (L1210 leukemia; 200 mkd × 5 i.p.): 8 days | Mean ± SD survival (L1210 leukemia; 200 mkd × 5 i.p.): 7.8 ± 0.2 | therapeutic effect (L1210/5-FU leukemia; 25 mkd × 5): did not | % ILS (increase in life span) (L1210/5-FU leukemia; 25 mkd × 5 i.p.): 12% | Mean Animal Weight (L1210/5-FU leukemia; 25 mkd × 5 i.p.): 17.6 g | Survival Range (L1210/5-FU leukemia; 25 mkd × 5 i.p.): 5 to 9 days | Median survival (L1210/5-FU leukemia; 25 mkd × 5 i.p., control 9): 8 days | Mean ± SD survival (L1210/5-FU leukemia; 25 mkd × 5 i.p., control 9.25 ± 0.2): 7.6 ± 0.7 days
